Assay results from patent publication US20060024350A1, “Biodegradable ocular devices, methods and systems” (priority 2004, published 2006).
“Also recorded” adds a separate entry of the source.

What was measured:
[1] = In vivo elution: HPLC detection of TA in tissues after 4-week subretinal implantation; set-up: species or system rabbit; conditions: four weeks after the implant, PCL/TA 60:40 subretinal
[2] = 72 hours after injection; cited from earlier work
[3] = direct injection, posterior segment; cited from earlier work

SMILES | TA detection in anterior structures or blood (HPLC) [1] | TA detection in posterior tissue samples (HPLC) [1] | triamcinolone present in the vitreous associated with other tissues including retina, pigment epithelium, sclera [2] | adverse or undesirable side effects observed [3]
CC1(C)O[C@@H]2C[C@H]3[C@@H]4CCC5=CC(=O)C=C[C@]5(C)[C@@]4(F)[C@@H](O)C[C@]3(C)[C@]2(C(=O)CO)O1 [TA, Triamcinolone acetonide] | not detected | confirmed the presence; also recorded: localized to the posterior eye segment |  | 
C[C@]12C=CC(=O)C=C1CC[C@H]1[C@@H]3C[C@@H](O)[C@](O)(C(=O)CO)[C@@]3(C)C[C@H](O)[C@@]12F [triamcinolone] |  |  | less than 1% | elevations in intraocular pressure and the formation of, or acceleration of the development of cataracts
